The values that follow come from ChEMBL document CHEMBL4321873, “Optimization of Orally Bioavailable PI3Kδ Inhibitors and Identification of Vps34 as a Key Selectivity Target” (J Med Chem, 2020).

≈ marks a conversion by molar mass, not a printed value. Where only a bound is given, the exact number is not on record here.

Data set [1] is described as follows: Permeability of the compound in pH 7.05 phosphate buffer measured after 3 hrs by artificial membrane permeability assay based LC-MS analysis. The data set is classed as ADME. The following applies: PAMPA, read-out: permeability. (In general: In PAMPA a lipid-coated filter parts donor from acceptor wells.)
Data set [2] in a line: Clearance in Wistar Han rat at 1 mg/kg, iv by LC-MS/MS analysis. The data set is classed as ADME, organism-based. The following applies: in vivo.
Data set [3] is described as follows: Intrinsic clearance in human hepatocytes at 0.5 uM measured after 10 mins by LC-MS/MS analysis. The data set is classed as ADME, cell-based, Hepatocyte.
The nature of data set [4]: Intrinsic clearance in rat hepatocytes at 0.5 uM measured after 10 mins by LC-MS/MS analysis. The class given is ADME, cell-based, Hepatocyte.
The nature of data set [5]: Clearance in Wistar Han rat at 1 mg/kg, iv by LC-MS/MS analysis relative to hepatic blood flow. The data set is classed as ADME, organism-based. The following applies: in vivo.
A short description of data set [6]: Intrinsic clearance in minipig hepatocytes at 0.5 uM measured after 10 mins by LC-MS/MS analysis. The data set is classed as ADME, cell-based, Sus scrofa domesticus, Hepatocyte. The settings on record: pig.
Data set [7] is described as follows: Volume of distribution at steady state in Wistar Han rat at 1 mg/kg, iv or 1 mg/kg, po by LC-MS/MS analysis. The class given is ADME, organism-based. The settings on record: in vivo, read-out: Vdss.
Data set [8] can be described thus: Half life in Wistar Han rat at 1 mg/kg, iv by LC-MS/MS analysis. The settings on record: in vivo. The class given is ADME, organism-based.
The nature of data set [9]: Kinetic solubility of the compound in pH 7.4 phosphate buffered saline measured after 1 hr by CLND method. The data set is classed as physicochemical. The following applies: read-out: Kinetic_solubility.
Data set [10] can be described thus: Time at which plasma concentration stays at 10 times Kd(app) for binding affinity to PI3Kdelta in human HL60 cell extract in Wistar Han rat at 30 to 300 mg/kg, po administered once daily for 7 days. The following applies: in vivo, 168 h. The class given is ADME, organism-based.
A short description of data set [11]: Time at which plasma concentration stays at 10 times Kd(app) for binding affinity to PI3Kdelta in human HL60 cell extract in Wistar Han rat at 10 to 100 mg/kg, po administered twice daily for 7 days. The data set is classed as ADME, organism-based. The settings on record: in vivo, 168 h.
Data set [12] can be described thus: Time at which plasma concentration stays at 10 times Kd(app) for binding affinity to VPS34 in human HL60 cell extract in Wistar Han rat at 100 mg/kg, po administered once daily for 7 days. The settings on record: in vivo, 168 h. The class given is ADME, organism-based.
Data set [13] can be described thus: AUC (infinity) in Wistar Han rat at 1 mg/kg, po by LC-MS/MS analysis. The class given is ADME, organism-based. Further details: dose 1 mg/kg, time infinity, route oral. The following applies: in vivo.
Data set [14] is described as follows: Oral bioavailability in Wistar Han rat at 1 mg/kg by LC-MS/MS analysis. The class given is ADME, organism-based. The settings on record: in vivo.
Data set [15] can be described thus: AUC (0 to 24 hrs) in Wistar Han rat at 100 mg/kg, po administered once daily for 7 days by LC-MS/MS analysis. The class given is ADME, organism-based. The following applies: in vivo. Also noted: time < 24 hr, dose 100 mg/kg, route oral.
The nature of data set [16]: AUC (0 to 4 hrs) in Wistar Han rat at 300 mg/kg, po administered once daily for 7 days by LC-MS/MS analysis. The class given is ADME, organism-based. Also noted: dose 300 mg/kg, time < 4 hr, route oral. The settings on record: in vivo.
Data set [17] is described as follows: AUC (0 to 24 hrs) in Wistar Han rat at 30 mg/kg, po administered once daily for 7 days by LC-MS/MS analysis. The data set is classed as ADME, organism-based. Further details: dose 30 mg/kg, time < 24 hr, route oral. The settings on record: in vivo.
The nature of data set [18]: AUC (0 to 24 hrs) in Wistar Han rat at 10 mg/kg, po administered twice daily for 7 days by LC-MS/MS analysis. The data set is classed as ADME, organism-based. Also noted: dose 10 mg/kg, time < 24 hr, route oral. The following applies: in vivo.
Data set [19] can be described thus: AUC (0 to 24 hrs) in Wistar Han rat at 100 mg/kg, po administered twice daily for 7 days by LC-MS/MS analysis. Also noted: dose 100 mg/kg, time < 24 hr, route oral. The data set is classed as ADME, organism-based. The settings on record: in vivo.
The nature of data set [20]: AUC (0 to 24 hrs) in Wistar Han rat at 30 mg/kg, po administered twice daily for 7 days by LC-MS/MS analysis. The class given is ADME, organism-based. Further details: dose 30 mg/kg, time < 24 hr, route oral. The following applies: in vivo.

Take `COc1ncc(-c2cc3c(c(OCCN4CCC(C(C)(C)O)CC4)c2)COC3)cc1NS(=O)(=O)CC#N`: the Papp at 3 h in [1] is below 0.3 ×10⁻⁶ cm/s.
`COc1ncc(-c2cc3c(c(OCCN4CCC(C(C)(C)O)CC4)c2)CCOC3)cc1NS(C)(=O)=O`: the clearance in [2] was 109 mL/min/kg.
Take `COCCS(=O)(=O)Nc1cc(-c2cc3c(c(OCCN4CCC(C(C)(C)O)CC4)c2)COC3)cnc1OC`: the Papp at 3 h in data set [1] was below 0.3 ×10⁻⁶ cm/s. Also, the intrinsic clearance in data set [3] is below 0.9 mL/min/g. Further, in [4], the “Intrinsic clearance (CLint)” value was 1.6 mL/min/g. In data set [5], this compound had a CL of 28%.
In [6], `COCCS(=O)(=O)Nc1cc(-c2cc3c(c(OCCN4CCC(C(C)(C)O)CC4)c2)CCOC3)cnc1OC` gave a CLH below 0.9 mL/min/g. In [3], this compound yielded an intrinsic clearance below 0.9 mL/min/g. Also, the Vd in data set [7] came to 6.9 L/kg. In data set [8], this compound showed a half-life of 2.7 h. The “Intrinsic clearance (CLint)” value in data set [4] is below 0.9 mL/min/g. The solubility kinetic at 1 h in data set [9] is at least 184 µg/mL. Also, the clearance in data set [2] was found to be 41 mL/min/kg.
On to `COc1ncc(-c2cc3c(c(OCCN4CCC(C(C)(C)O)CC4)c2)COC3)cc1NS(C)(=O)=O`, for which the Time in data set [10], in data set [11] and in data set [12] was 24 h in each case. For the same compound, the CLH in data set [6] was below 0.9 mL/min/g. The same compound had an intrinsic clearance in data set [3] below 0.9 mL/min/g. Also, in data set [13], the AUC(0-inf) is 148 ng·h/mL. The same compound came in with a bioavailability in [14] of 32%. Further, the AUC at 24 h in [15] came to 26300 ng·h/mL; in data set [17], 5000 ng·h/mL. For the same compound, in [7], the Vd turned out to be 5.9 L/kg. Moreover, in data set [8], the half-life was 2.1 h. Further, in data set [4], the “Intrinsic clearance (CLint)” value was 2.5 mL/min/g. The solubility kinetic at 1 h in data set [9] is 197 µg/mL (≈ 390 µM). In [16], this compound showed an area under the curve (AUC) at 4 h of 27500 ng·h/mL. Further, in [5], the CL amounted to 62%. In data set [2], this compound registered a clearance of 48 mL/min/kg.
Take `COc1ncc(-c2cc3c(c(NC(=O)CN4CCOCC4)c2)COC3)cc1NS(C)(=O)=O`: the AUC(0-inf) in data set [13] stood at 673 ng·h/mL.
In [3], `COc1ncc(-c2cc(OCCN3CCC(C(C)(C)O)CC3)c3c(c2)[C@@H](C)OC3)cc1NS(C)(=O)=O` returned an intrinsic clearance below 0.9 mL/min/g. For the same compound, the “Intrinsic clearance (CLint)” value in data set [4] came to 9.7 mL/min/g.
For `COCCS(=O)(=O)Nc1cc(-c2cc3c(c(OC[C@H]4CN(C5COC5)CCO4)c2)COC3)cnc1OC`, the Time in [10] and in data set [11] was 24 h each time. In data set [6], the CLH stood at 0.9 mL/min/g. The results for the AUC at 24 h in data set [18], in data set [19] and in data set [20] were 12600 ng·h/mL, 114000 ng·h/mL and 37400 ng·h/mL, respectively. This compound also registered an intrinsic clearance in data set [3] below 0.3 mL/min/g. In data set [13], this compound returned an area under the curve AUC(0-inf) of 829 ng·h/mL. The bioavailability in data set [14] came out at 84%. For the same compound, the Vd in data set [7] is 2 L/kg. The compound further gave a half-life in data set [8] of 3.2 h. In data set [4], the “Intrinsic clearance (CLint)” value came out at 1.2 mL/min/g. For the same compound, in [9], the solubility kinetic at 1 h was at least 270 µg/mL. The CL in data set [5] was determined as 28%. In data set [2], the clearance was 22 mL/min/kg.
For the compound `COc1ncc(-c2cc(OCCN3CCC(C(C)(C)O)CC3)c3c(c2F)COC3)cc1NS(C)(=O)=O`, the intrinsic clearance in [3] is below 0.9 mL/min/g. Also, the “Intrinsic clearance (CLint)” value in data set [4] stood at 4.5 mL/min/g.

Broadly, the clearance is a measure of how efficiently the substance is removed, as volume per time. A high value points to a high capacity for elimination. In general, half-life refers to how long it takes for the measured level to halve. By AUC(0-inf) is commonly meant total exposure, with the tail of the curve extrapolated. A high value points to more exposure. For orientation: bioavailability means the share of a dose that reaches the circulation, judged against a reference dose that is usually intravenous. Broadly, the AUC is concentration integrated over time. Low values mean less exposure, high ones more exposure.
